Test system: standard human gut microbiota pool
Test: i-screen fermentation of fibres by faecal microbiota: pH and SCFA/BCFA formation
Type: cell-based
Details: after 24 h of fermentation in SIEM medium at 37° C., fibres 10 mg/ml
Description: For studying fermentation of fibres by microbiota the i-screen platform was used, see Schuren et al., The i-screen: A Versatile Preclinical Platform for Gut Microbiota Studies, J Prob Health 2019 7:212. A standard human gut microbiota pool was used for the fermentation. This pool was established via fecal donations from 6 healthy volunteers (Caucasian individuals, age 25-60 years, no antibiotic use in the 3 months preceding the donation, self-assessment of health status). Before starting the i-screen fermentation with the test compounds, the standardized fecal pool was incubated in SIEM (standard ileal effluent medium) under anaerobic conditions overnight (37° C.; 300 rpm) in order to activate the bacteria.
The fibres were tested at a concentration of 10 mg/ml. All compounds were tested in triplicate.
The following conditions were applied: • 1 No added fibres, SIEM medium only • 2 Mixture of beta-galactooligosaccharides (Vivinal GOS, Friesland Campina), inulin (Orafti HP (Beneo-Orafti Orey) Beneo BE), resistant starch (Novelose 330 (Ingredion UK Ltd) and non-soluble soy polysaccharides, source Fibrim 2000 (DuPont/Danisco) in a weight ratio of 38:38:4:20, prior art MF4 • 3 Mixture of beta-galactooligosaccharides (Vivinal GOS, Friesland Campina), inulin (Orafti HP (Beneo-Orafti Orey) Beneo BE), resistant starch (Novelose 330 (Ingredion UK Ltd) and soluble soy polysaccharides, source Soyafibe-S-Ca100 (Fuji Oil Co, Ltd), in a weight ratio of 38:38:4:20, new MF4 • 4 Lactulose (Duphalac Lactulose, Solvay, the Netherlands)
After 24 hours of fermentation in SIEM medium at 37° C., samples were collected for pH measurements, DNA isolation and for metabolite analysis. The remaining material was stored at −20° C.
DNA was isolated as described by Ladirat et al. J Microbiol Meth 2013, 92(3), 387-397 with some minor adjustments: the samples were initially mixed with 300 μl lysis buffer (Agowa, Berlin, Germany), 500 μl zirconium beads (0.1 mm), and 500 μl phenol, before being introduced to a Bead Beater (BioSpec Products, Bartlesville, OK, USA) for 3 min. 16S amplicon sequencing DNA was analyzed by using 16S rDNA amplicon sequencing. The V4 hypervariable region was targeted. […] Amplicon quality and size were analyzed on a Fragment Analyzer (Advanced Analytical Technologies, Inc.). […] SCFA covering acetate, propionate, and n-butyrate and branched chain fatty acids (BCFA) covering iso-butyrate and iso-valerate were analyzed as described by as described by Van Nuenen Microbiology in Health and Disease 2003, 15: 137-144. […]
For the analysis of total lactate, material resulting from the i-screen fermentation was sampled and centrifuged at 4,000 g for 5 minutes. […] The D- and L-lactate were determined by the Arena 20XL analyser. […]

OC[C@H]1O[C@@H](O[C@@H]2[C@@H](CO)OC(O)(CO)[C@H]2O)[C@H](O)[C@@H](O)[C@H]1O (mixture of isomers) [lactulose, Lactulose]
Mean Butyrate: 49.39 mM | Mean Propionate: 6.61 mM | Mean Acetate (value (s.d.)): 44.93 (1.40) mM | Mean Total SCFA (value (s.d.)): 100.9 (2.67) mM
